Values after ≈ are worked out from the molar mass of the structure shown. Where a SMILES comes first, the peptide text is derived from it. [ ]: non-standard residue; d: D form. The star is where a group is joined. Palmitoyl = CCCCCCCCCCCCCCCC(=O)*; Lauroyl = CCCCCCCCCCCC(=O)*; Pentanoyl = CCCCC(=O)*; AEEA = NCCOCCOCC(=O)O; Ahx = NCCCCCC(=O)O; βAla = NCCC(=O)O
Legend:
[1] = system: S. aureus (PCM 2054) biofilm; experiment: Biofilm inhibition assay (MTT); format: cell-based, Staphylococcus aureus; details: S. aureus biofilm development, 24 h post-inoculation
Protocol: (§1) In the case of bacteria, an overnight culture of S. aureus in Tryptic Soy Broth (TSB) supplemented with 2% glucose (TSB/+G) was used to prepare inoculum for the experiments. Briefly, 5 mL of 24 h culture was centrifuged at 5000× g, washed with sterile PBS and suspended in a fresh 2 × concentrated TSB/+G. In the case of yeasts, the overnight culture of C. albicans in Sabouraud dextrose broth (SB) was used for inoculum preparation. Similar to above, 5 mL of 24 h culture was centrifuged, washed with PBS and then suspended in sterile 2 × concentrated RPMI-1640 medium (with L-glutamine, without sodium bicarbonate) supplemented with 2% glucose (RPMI-1640/+G). In both cases, the cell concentration of the inoculum was about 1 × 10^7 cells per ml.
(§2) For the determination of the inhibitory concentration that reduced biofilm development by 50% (BIC50^, expressed in µg/mL), 100 µL inoculum in 2 × concentrated RPMI-1640/+G medium (in the case of C. albicans) or 2 x concentrated TSB/+G broth (in the case of S. aureus) was transferred to each well of 96-well plates containing 100 µL of serially diluted in water tested compounds. The final concentrations of the compounds were the same as those used in MIC determination studies. The 96-well plates were then incubated for 24 h at 37 °C and 35 °C in the case of bacteria and fungi, respectively. Viability of the microorganisms in the presence of the tested compounds was analyzed by means of MTT assay.
(§3) The reduction in biofilm viability was analyzed by means of MTT assay. Briefly, 20 μL of MTT solution (5 mg/mL in PBS) was added to prewashed wells with exchanged medium (180 μL of fresh medium) wells containing bacterial/yeast biofilms. Plates were then incubated in the dark for the next 3 h at 37 °C. After that time, the medium was replaced with 6 mM HCl in isopropanol and, when the reduced MTT was fully dissolved, the plates were read at 570 nm. Activity against fully developed 24 h old biofilm was described as biofilm eradication concentration (BEC50 expressed in µg/mL), which corresponded to the concentration of the compound able to reduce 50% of biofilm viability compared with the growth control.

C.glabrata CCM 8270 = experiment: MIC, broth microdilution; format: cell-based, Candida glabrata; details: C.glabrata CCM 8270, 24 h
Excerpt: (§4) Escherichia coli (PCM 2057 = ATCC 25922), Staphylococcus aureus (PCM 2054 = ATCC 25923), Staphylococcus epidermidis (PCM 2118 = ATCC 14990), Bacillus subtilis (PCM 2224 = ATCC 9799), Bacillus cereus (PCM 482 = ATCC 10702) and Pseudomonas aeruginosa (PCM 499 = ATCC 10145) were obtained from the Polish Collection of Microorganisms. Fungi strains Candida albicans (CCM 8186 = CNTC 49/64), Candida glabrata (CCM 8270 = ATCC 90030), Candida parapsilosis (CCM 8260 = ATCC 22019) and Candida krusei (CCM 8271 = ATCC 6258) were acquired from the Czech Collection of Microorganisms. S. aureus USA300 (wild type strain), the reference strain of Klebsiella pneumoniae (ATCC 13883) and clinical isolates of Pseudomonas aeruginosa (PA1, PA2) collected from nonrelated patients admitted to the Stefan Zeromski Specialist Municipal Hospital in Krakow (Poland) were kindly provided by the research group of the Department of Microbiology, Faculty of Biochemistry, Biophysics and Biotechnology, Jagiellonian University, Krakow, Poland.
(§5) Luria-Bertani broth (LB) and Sabouraud Dextrose broth (SB) (Biocorp, Poland) were used for cultivation of bacteria and fungi strains, respectively. The antimicrobial activity of the peptides were analyzed through determination of MIC (minimal inhibitory concentration) parameters according to Clinical and Laboratory Standards (CLSI) guidelines developed for aerobic bacteria and yeasts, respectively. Mueller-Hinton broth (MHB) was used as the working medium for all bacterial strains, while in the case of fungi, RPMI-1640 (with L-glutamine, without sodium bicarbonate) growth medium buffered with MOPS (morpholinepropanesulfonic acid) and supplemented with 2% glucose was used. Inoculum was prepared from freshly grown cultures of microorganisms at their exponential phase of growth. […] Plates were then incubated for 24 h at 37 °C in the case of bacteria and at 35 °C in the case of fungi. After that time, absorbance was read at 590 nm with a Perkin Elmer plate reader. Cultures without peptide were treated as positive control, while uninoculated media were defined as negative control. All measurements were run at least in triplicate.

[2] = system: S. aureus (PCM 2054) biofilm; experiment: Biofilm eradication assay, pre-formed 24 h old biofilm (MTT); format: cell-based, Staphylococcus aureus; details: S. aureus pre-formed 24 h old biofilm, 24 h treatment
Protocol: Biofilm eradication activity of the synthesized compounds was analyzed against 24 h old biofilms of S. aureus and C. albicans. In the case of bacteria, an overnight culture of S. aureus in Tryptic Soy Broth (TSB) supplemented with 2% glucose (TSB/+G) was used to prepare inoculum for the experiments. Briefly, 5 mL of 24 h culture was centrifuged at 5000× g, washed with sterile PBS and suspended in a fresh TSB/+G. The bacterial suspension was then diluted in a fresh growth medium to obtain the final concentration of colonies of about 1 × 10^7 cells per ml. Further, 200 μL of the inoculum was transferred to each well of 96-well sterile polystyrene flat-bottomed plate, and bacteria were then incubated for the next 24 h without shaking at 37 °C.
After that, each well of the plates containing bacterial or fungi biofilm was washed three times with PBS in order to remove all non-adherent cells. Then, peptide solutions of 200 µL ranging from 50 to 0,39 µg/mL prepared in TSB +/G in the case of experiments on S. aureus biofilm, and (RPMI-1640/+G) in the case of C. alibcans, were prepared and transferred into the microtiter plates. After the addition of the peptides, the experiments were continued for the next 24 h.
as §3

C.parapsilosis CCM 8260 = experiment: MIC, broth microdilution; format: cell-based, Candida parapsilosis; details: C.parapsilosis CCM 8260, 24 h
Excerpt: as §4, §5

B. subtilis PCM 2224 = experiment: MIC, broth microdilution; format: cell-based, Bacillus subtilis; details: B. subtilis PCM 2224, 24 h
Excerpt: as §4, §5

E. coli PCM 2057 = experiment: MIC, broth microdilution; format: cell-based, Escherichia coli; details: E. coli PCM 2057, 24 h
Excerpt: as §4, §5

[3] = system: C. albicans (CCM 8186) biofilm; experiment: Biofilm inhibition assay (MTT); format: cell-based, Candida albicans; details: C. albicans biofilm development, 24 h post-inoculation
Protocol: as §1, §2, §3

P. aeruginosa PCM 499 = experiment: MIC, broth microdilution; format: cell-based, Pseudomonas aeruginosa; details: P. aeruginosa PCM 499, 24 h
Excerpt: as §4, §5

S. aureus PCM 2054 = experiment: MIC, broth microdilution; format: cell-based, Staphylococcus aureus; details: S. aureus PCM 2054, standard Mueller-Hinton broth, 24 h
Excerpt: as §4, §5

S. epidermidis PCM 2118 = experiment: MIC, broth microdilution; format: cell-based, Staphylococcus epidermidis; details: S. epidermidis PCM 2118, 24 h
Excerpt: as §4, §5

SMILES	BIC50 [1] [µg/mL]	MIC100 (C.glabrata CCM 8270) [µg/mL]	BEC50 [2] [µg/mL]	MIC100 (C.parapsilosis CCM 8260) [µg/mL]	MIC100 (B. subtilis PCM 2224) [µg/mL]	MIC100 (E. coli PCM 2057) [µg/mL]	BIC50 [3] [µg/mL]	MIC100 (P. aeruginosa PCM 499) [µg/mL]	MIC100 (S. aureus PCM 2054) [µg/mL]	MIC100 (S. epidermidis PCM 2118) [µg/mL]
CCCCCCCCCCCCCCCC(=O)NCCC(=O)N[C@@H](Cc1c[nH]cn1)C(=O)NCCOCCOCC(=O)N[C@H](C(=O)N[C@@H](CCCCN)C(=O)N[C@@H](CCCCN)C(=O)N[C@H](C(=O)N[C@@H](CC(C)C)C(=O)N[C@@H](CO)C(=O)N[C@@H](CCCCN)C(=O)N[C@H](C(=O)N[C@@H](CCCCN)C(=O)N[C@@H](CCCCN)C(=O)N[C@@H](CC(C)C)C(=O)N[C@@H](CC(C)C)C(N)=O)[C@@H](C)CC)[C@@H](C)CC)[C@@H](C)CC [C16-CAR-PEG-DK5] ({Palmitoyl-βAla}-H[AEEA]IKKILSKIKKLL-NH2)	10	>50	6.25	6.25 (≈ 3.1 µM)	12.5 (≈ 6.2 µM)	>50	25	>50	>50	25 (≈ 12.4 µM)
CCCCC(=O)N[C@H](C(=O)N[C@@H](CCCCN)C(=O)N[C@@H](CCCCN)C(=O)N[C@H](C(=O)N[C@@H](CC(C)C)C(=O)N[C@@H](CO)C(=O)N[C@@H](CCCCN)C(=O)N[C@H](C(=O)N[C@@H](CCCCN)C(=O)N[C@@H](CCCCN)C(=O)N[C@@H](CC(C)C)C(=O)N[C@@H](CC(C)C)C(N)=O)[C@@H](C)CC)[C@@H](C)CC)[C@@H](C)CC [Compound C5-DK5] (Pentanoyl-IKKILSKIKKLL-NH2)	6.25	6.25 (≈ 4.14 µM)	>50	3.13 (≈ 2.08 µM)	0.78 (≈ 0.517 µM)	3.13 (≈ 2.08 µM)	10	25 (≈ 16.6 µM)	12.5 (≈ 8.29 µM)	0.78 (≈ 0.517 µM)
CC[C@H](C)[C@H](NC(=O)COCCOCCNC(=O)[C@H](Cc1c[nH]cn1)NC(=O)CCNC(=O)CCCCCN)C(=O)N[C@@H](CCCCN)C(=O)N[C@@H](CCCCN)C(=O)N[C@H](C(=O)N[C@@H](CC(C)C)C(=O)N[C@@H](CO)C(=O)N[C@@H](CCCCN)C(=O)N[C@H](C(=O)N[C@@H](CCCCN)C(=O)N[C@@H](CCCCN)C(=O)N[C@@H](CC(C)C)C(=O)N[C@@H](CC(C)C)C(N)=O)[C@@H](C)CC)[C@@H](C)CC [AHX-CAR-PEG-DK5] (H-[Ahx][βAla]H[AEEA]IKKILSKIKKLL-NH2)	>50	>50	>50	50 (≈ 26.4 µM)	6.25 (≈ 3.31 µM)	>50	>50	>50	>50	6.25 (≈ 3.31 µM)
CC[C@H](C)[C@H](NC(=O)CCCCCN)C(=O)N[C@@H](CCCCN)C(=O)N[C@@H](CCCCN)C(=O)N[C@H](C(=O)N[C@@H](CC(C)C)C(=O)N[C@@H](CO)C(=O)N[C@@H](CCCCN)C(=O)N[C@H](C(=O)N[C@@H](CCCCN)C(=O)N[C@@H](CCCCN)C(=O)N[C@@H](CC(C)C)C(=O)N[C@@H](CC(C)C)C(N)=O)[C@@H](C)CC)[C@@H](C)CC [AHX-DK5] (H-[Ahx]IKKILSKIKKLL-NH2)	6.25	12.5 (≈ 8.13 µM)	25	12.5 (≈ 8.13 µM)	0.78 (≈ 0.507 µM)	12.5 (≈ 8.13 µM)	25	25 (≈ 16.3 µM)	>50	0.78 (≈ 0.507 µM)
CCCCCCCCCCCCCCCC(=O)N[C@H](C(=O)N[C@@H](CCCCN)C(=O)N[C@@H](CCCCN)C(=O)N[C@H](C(=O)N[C@@H](CC(C)C)C(=O)N[C@@H](CO)C(=O)N[C@@H](CCCCN)C(=O)N[C@H](C(=O)N[C@@H](CCCCN)C(=O)N[C@@H](CCCCN)C(=O)N[C@@H](CC(C)C)C(=O)N[C@@H](CC(C)C)C(N)=O)[C@@H](C)CC)[C@@H](C)CC)[C@@H](C)CC [Compound C16-DK5] (Palmitoyl-IKKILSKIKKLL-NH2)	6.25	>50	6.25	–	3.13 (≈ 1.88 µM)	>50	>50	>50	>50	25 (≈ 15 µM)
CCCCCCCCCCCC(=O)NCCC(=O)N[C@@H](Cc1c[nH]cn1)C(=O)NCCOCCOCC(=O)N[C@H](C(=O)N[C@@H](CCCCN)C(=O)N[C@@H](CCCCN)C(=O)N[C@H](C(=O)N[C@@H](CC(C)C)C(=O)N[C@@H](CO)C(=O)N[C@@H](CCCCN)C(=O)N[C@H](C(=O)N[C@@H](CCCCN)C(=O)N[C@@H](CCCCN)C(=O)N[C@@H](CC(C)C)C(=O)N[C@@H](CC(C)C)C(N)=O)[C@@H](C)CC)[C@@H](C)CC)[C@@H](C)CC [C12-CAR-PEG-DK5] ({Lauroyl-βAla}-H[AEEA]IKKILSKIKKLL-NH2)	–	12.5 (≈ 6.38 µM)	–	3.13 (≈ 1.6 µM)	3.13 (≈ 1.6 µM)	3.13 (≈ 1.6 µM)	–	12.5 (≈ 6.38 µM)	6.25 (≈ 3.19 µM)	0.78 (≈ 0.398 µM)
